Data set [1] concerns B. burgdorferi (growing, strain B31). Put plainly: MIC determination, standard microdilution method. Particulars: for sensitivity of log phase / multiplying B. burgdorferi (words, FIG. 12): MIC test. The data set is classed as cell-based, Borrelia burgdorferi.
The subject of data set [2] is round body form of B. burgdorferi. Put plainly: SYBR Green I/PI assay on amoxicillin-induced round body form.
The test system of data set [3] is stationary phase B. burgdorferi persisters (strain B31). As to the kind of experiment: NCI compound library rescreen, epifluorescence microscope counting. To be noted: for Residual viable cells (epifluorescence microscope counting) / Residual viable cells (%) 50 μM (epifluorescence microscope counting): 50 μM; for Residual viable cells (epifluorescence microscope counting): seven day old stationary phase culture; for Residual viable cells (epifluorescence microscope counting) / Residual viable cells (%) 20 μM (epifluorescence microscope counting) / Residual viable cells (%) 50 μM (epifluorescence microscope counting): 7 days; for Activity against persisters (residual viable cell percentage): stationary phase persisters; for viability at 50 µM / viability at 20 µM: Borreliella burgdorferi, 168 h; for viability at 20 µM: read-out: Residual viable cells (%) 20 μM (epifluorescence microscope counting); for Residual viable cells (%) 20 μM (epifluorescence microscope counting) / Residual viable cells (%) 50 μM (epifluorescence microscope counting): seven day old stationary phase.

For data set [4] the test system is unchanged. Put plainly: NCI compound library screen, SYBR Green I/PI assay (plate reader). To be noted: for Residual viable cells (SYBR Green I/PI assay): 50 μM, seven day old stationary phase culture; for Residual viable cells (SYBR Green I/PI assay) / Residual viable cells (%) 20 μM (SYBR Green I/PI assay): 7 days; for viability at 50 µM / viability at 20 µM: Borreliella burgdorferi, 168 h; for Residual viable cells (%) 20 μM (SYBR Green I/PI assay): seven day old stationary phase.

Setting [5] is: read-out: Activity against persisters (residual viable cell percentage).
Setting [6] is: read-out: Residual viable cells (epifluorescence microscope counting).
The mark [7] stands for this setting: read-out: Residual viable cells (SYBR Green I/PI assay), 50 μM, seven day old stationary phase culture, 7 days.
Setting [8] is: read-out: Residual viable cells (%) 50 μM (epifluorescence microscope counting).
Where [9] appears, read: read-out: Residual viable cells (%) 20 μM (SYBR Green I/PI assay), 20 μM, seven day old stationary phase, 7 days.
Where [10] appears, read: Borreliella burgdorferi, growing B. burgdorferi, read-out: MIC.
Where [11] appears, read: read-out: Residual viable cells (SYBR Green I/PI assay).

In brackets after ≈: the same amount, converted by molar mass. Where two headings read alike, the source gives them in different places. Starred links: 1 amine or outer side, 2 acyl side, 3 side chain; linkers in the order of their positions; H or OH if unused. Positions of bridges follow the written chain, without caps; N, C: chain ends. Non-standard residues stand in square brackets, D forms with d. Residues, ends and D or L forms follow the SMILES beside them. Chains are numbered I, II in the order given. Actinocin(9to1) = Cc1c2oc3c(C)ccc(C(=O)[*:1])c3nc-2c(C(=O)[*:2])c(N)c1=O; NMeV = CN[C@H](C(=O)O)C(C)C; Sar = CNCC(=O)O

Consider `Cc1ncc([N+](=O)[O-])n1CCO` [Metronidazole], for which, in data set [1], the “sensitivity of log phase / multiplying B. burgdorferi (words, FIG. 12)” value is given as “less potent”. Moreover, the viability at 50 µM in data set [2] (Borreliella burgdorferi, 168 h, read-out: Residual viable cells (SYBR Green I/PI assay)) is 33%. Moreover, in data set [2] (round body form, 50 μM, 7 days), the “Ratios of green/red fluorescence, Primary screening” value is given as 6.23; the “Ratios of green/red fluorescence, Rescreening (first column)” value came to 6.30; the “Ratios of green/red fluorescence, Rescreening (second column)” value is recorded as 6.31.

For orientation: MIC means the smallest concentration in the dilution series that meets the test's criterion for growth inhibition. As to `Cc1c2oc3c(C)ccc(C(=O)N[C@@H]4C(=O)N[C@H](C(C)C)C(=O)N5CCC[C@H]5C(=O)N(C)CC(=O)N(C)[C@@H](C(C)C)C(=O)O[C@@H]4C)c3nc-2c(C(=O)N[C@@H]2C(=O)N[C@H](C(C)C)C(=O)N3CCC[C@H]3C(=O)N(C)CC(=O)N(C)[C@@H](C(C)C)C(=O)O[C@@H]2C)c(N)c1=O` [NSC3053, Dactinomycin] (I: T[dV]P[Sar][NMeV] / II: T[dV]P[Sar][NMeV]; ester I:1-I:C, II:1-II:C; linker I:N-II:N via Actinocin(9to1)), the minimum inhibitory concentration (MIC) entry in data set [1] (growing B. burgdorferi, listed as Dactinomycin) is on record as “≦0.78 μg/mL”. For the same molecule, the MIC in data set [1] (growing B. burgdorferi, listed as dactinomycin) is ≤ 0.78 µg/mL. Besides, in data set [3], the “Residual viable cells (epifluorescence microscope counting)” value is on record as 30% and the “Activity against persisters (residual viable cell percentage)” value is given as 30%. Moreover, the “Residual viable cells (SYBR Green I/PI assay)” value in data set [4] is listed as 37%.

On to `CO[C@@]12[C@H](COC(N)=O)C3=C(C(=O)C(C)=C(N)C3=O)N1C[C@@H]1N[C@@H]12` [NSC26980, Mitomycin], for which the MIC was ≤ 0.21 µg/mL in data set [1] (Borreliella burgdorferi) and “≦0.21 μg/mL” in data set [1] (growing B. burgdorferi). The viability at 50 µM came out at 25% in data set [3] (setting [5]), 25% in data set [3] (setting [6]) and 20% in data set [4] (setting [7]).

Consider `CCN(CC)c1ccc2cc3ccc(=[N+](CC)CC)cc-3oc2c1.[Cl-]` [NSC44690, Pyronin B], for which the MIC in data set [1] (growing B. burgdorferi) is 1.8 to 3.6 µg/mL.

For the molecule `CCCCCC1=C/C(=C/c2[nH]c(-c3ccc[nH]3)cc2OC)N=C1C` [NSC47147, Prodigiosin], the MIC in data set [1] (Borreliella burgdorferi) is ≤ 0.2 µg/mL; in data set [1] (growing B. burgdorferi) it was “≦0.2 μg/mL”. For the same molecule, the viability at 50 µM came to 24% in data set [3] (setting [5]), 24% in data set [3] (setting [8]), 24% in data set [3] (setting [6]) and 0% in data set [4] (setting [7]). In addition, the viability at 20 µM is 45% in data set [3] and 0% in data set [4] (setting [9]).

On to `COc1cccc2c1C(=O)c1c(O)c3c(c(O)c1C2=O)C[C@@](O)(/C(C)=N\O)C[C@@H]3OC1CC(N)C(O)C(C)O1.Cl` (stereo partly drawn) [NSC143491, Daunomycin 3-oxime hydrochloride], for which the MIC in data set [1] (setting [10]) is ≤ 0.36 µg/mL. Further, the viability at 50 µM in data set [3] (setting [5]) was 6%; in data set [3] (setting [6]) it was 6%; in data set [4] (setting [11]) it was 0%.

`CC[C@@]1(O)C[C@H](O[C@H]2C[C@H](N(C)C)[C@H](O)[C@H](C)O2)c2c(cc3c(c2O)C(=O)c2c(O)ccc(O)c2C3=O)[C@H]1C(=O)OC` [NSC267229, Pyrromycin] registered an MIC in data set [1] (growing B. burgdorferi) of 0.37 to 0.73 µg/mL. Moreover, in data set [3], the “Residual viable cells (%) 20 μM (epifluorescence microscope counting)” value was 20%, the “Residual viable cells (epifluorescence microscope counting)” value is given as 21%, the “Residual viable cells (%) 50 μM (epifluorescence microscope counting)” value worked out at 21% and the “Activity against persisters (residual viable cell percentage)” value amounted to 21%. In data set [4], the “Residual viable cells (%) 20 μM (SYBR Green I/PI assay)” value came out at 6% and the “Residual viable cells (SYBR Green I/PI assay)” value came out at 0%.

Take `CC1OC(CC(=O)O)CC2=C1C(=O)c1c(O)cccc1C2=O` (stereo not drawn) [NSC267461, Nanaomycin]: the MIC in data set [1] (setting [10]) is 0.76 to 1.57 µg/mL (≈ 2.51 to 5.19 µM). In addition, the viability at 50 µM in data set [3] (setting [5]) is 26%; in data set [3] (setting [8]), 26%; in data set [3] (setting [6]), 26%; in data set [4] (setting [7]), 34%. For the same molecule, the values for the viability at 20 µM in data set [3] and in data set [4] (setting [9]) were 45% and 39%, respectively.

In the case of `O=C1c2ccccc2C(=O)c2c(NCCNCCO)ccc(O)c21` [NSC299187, 9,10-Anthracenedione, 1-hydroxy-4-[[2-[(2-hydroxyethyl)amino]ethyl]amino]-], in data set [1] (setting [10]), the MIC is 3.26 to 6.52 µg/mL (≈ 9.99 to 20 µM). Besides, the viability at 50 µM is 13% in data set [3] (setting [5]), 13% in data set [3] (setting [6]) and 5% in data set [4] (setting [11]).

Regarding `CC1Oc2cc3c(-c4c(O)cc(O)c5c(O)c6c(cc45)OC(C)C(C)C6=O)c(O)cc(O)c3c(O)c2C(=O)C1C` (stereo not drawn) [NSC345647, Chaetochromin], in data set [1] (setting [10]), the MIC lay in the range of 2.74 to 5.47 µg/mL (≈ 5.01 to 10 µM). Moreover, the viability at 50 µM in data set [3] (setting [5]) was determined as 22%; in data set [3] (setting [8]), 22%; in data set [3] (setting [6]), 22%; in data set [4] (setting [11]), 8%. In addition, the figures for the viability at 20 µM in data set [3] and in data set [4] (read-out: Residual viable cells (%) 20 μM (SYBR Green I/PI assay)) were 33% and 31%, respectively.

For the molecule `Cc1cc(NS(=O)(=O)c2ccc(N)cc2)no1` [Smx, sulfamethoxazole], the MIC in data set [1] (setting [10]) is ≤ 0.2 µg/mL.

`C[C@]1(Cn2ccnn2)[C@H](C(=O)O)N2C(=O)C[C@H]2S1(=O)=O` [tazobactam]: in data set [1], the “sensitivity of log phase / multiplying B. burgdorferi (words, FIG. 12)” value is “less potent”.

Consider Nogalamycin [NSC70845], for which, in data set [3], the “Residual viable cells (%) 20 μM (epifluorescence microscope counting)” value is on record as 15%, the “Residual viable cells (epifluorescence microscope counting)” value stood at 15% and the “Residual viable cells (%) 50 μM (epifluorescence microscope counting)” value is listed as 15%. In data set [4], the “Residual viable cells (%) 20 μM (SYBR Green I/PI assay)” value stood at 3% and the “Residual viable cells (SYBR Green I/PI assay)” value is 0%.
